{"source": "paper PMC12706794", "about": "“Identification and Characterization of a Small-Molecule Inhibitor of the Pseudomonas aeruginosa SOS Response” (ACS Infectious Diseases, 2025)", "key": {"[1]": {"molecular_target": "T1, LexAPa S125A (Pseudomonas aeruginosa, UniProt P37452, S125A)", "T1 construct": "Concerning full-length LexAPa ^S125A, a biphasic melting curve was obtained for the pure protein; made in house; host or cells: E. coli BL21(DE3)", "T1 sequence (P37452 2-204 S125A)": "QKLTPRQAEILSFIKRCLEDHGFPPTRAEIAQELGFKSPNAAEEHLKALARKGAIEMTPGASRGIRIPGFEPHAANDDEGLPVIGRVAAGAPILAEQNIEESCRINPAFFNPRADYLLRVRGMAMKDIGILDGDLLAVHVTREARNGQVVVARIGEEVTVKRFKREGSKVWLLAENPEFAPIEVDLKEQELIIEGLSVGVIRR", "assay": "Isothermal titration calorimetry on LexAPa S125A", "type": "binding, P. aeruginosa", "protocol": "To investigate deeper the binding of A12 to the two members of the P. aeruginosa SOS complex, ITC was performed on RecAPa and LexAPa ^S125A (Figure D,E). The integrated binding isotherms of both proteins were best fitted by a “one set of sites” model.\n64 μM RecAPa and 58.5 μM LexAPa ^S125A were titrated with the selected compound (2.5 mM solution) using a Microcal PEAQ-ITC instrument (Malvern Panalytical) at 25 °C with a stirring rate of 750 rpm. Proteins and the ligand were dissolved in ITC Buffer (20 mM Tris–HCl, 150 mM NaCl, 5% v/v DMSO, pH 7.5). An initial 0.4 μL injection (excluded from data analysis) was followed by 24 injections of 1.5 μL with a spacing of 150 s between each addition. Blank experiments were performed by injecting the titrant compound in a protein-devoid ITC Buffer. Blank curves were subtracted from all of the experiments. Data were analyzed by using the MicroCal PEAQ-ITC Evaluation software (Malvern Panalytical). Integrated heat signals were fitted by a “one set of sites” binding model to obtain enthalpy changes (ΔH), dissociation constants (K D), and stoichiometry of binding."}, "[2]": {"assay": "Solubility in aqueous buffers", "type": "physicochemical", "conditions": "aqueous buffer, read-out: Solubility in aqueous buffers, concentration above which it strongly worsened"}, "[3]": {"test_system": "P. aeruginosa PAO1 on THP-1-derived macrophages", "assay": "P. aeruginosa PAO1 colonization of THP-1-derived macrophages", "type": "cell-based", "protocol": "THP-1-derived macrophages were generated from THP-1 monocytes as previously described, with minor modifications. , Briefly, THP-1 monocytes were washed three times with antibiotic-free RPMI 1640 medium and resuspended in complete antibiotic-free RPMI 1640 supplemented with 300 nM phorbol 12-myristate 13-acetate (PMA). Cells were incubated for 24 h, followed by a 48 h rest period in PMA-free RPMI 1640 prior to use in subsequent experiments. […] PMA-differentiated THP-1-derived macrophages were similarly trypsinized and seeded into 24-well plates at 5 × 10^5 cells/well in complete, antibiotic-free RPMI supplemented with FBS. Cells were incubated overnight to allow for attachment. Immediately prior to infection, the medium was aspirated, and cells were washed three times with Dulbecco’s phosphate-buffered saline. […] Infection was synchronized by centrifuging plates at 1000g for 1 min. […] Following the infection period, the medium was aspirated, and cells were washed three times with DPBS to remove unattached bacteria and residual test compounds. […] In both cases, the resulting lysates were serially diluted in DPBS and plated on tryptic soy agar plates. Plates were incubated at 37 °C for 24 h, after which colonies were enumerated. Bacterial burden was expressed as the CFU per well."}, "[4]": {"molecular_target": "T2, RecAPa (Pseudomonas aeruginosa, UniProt P08280)", "T2 construct": "made in house; host or cells: E. coli BL21(DE3)", "T2 sequence (P08280 2-346)": "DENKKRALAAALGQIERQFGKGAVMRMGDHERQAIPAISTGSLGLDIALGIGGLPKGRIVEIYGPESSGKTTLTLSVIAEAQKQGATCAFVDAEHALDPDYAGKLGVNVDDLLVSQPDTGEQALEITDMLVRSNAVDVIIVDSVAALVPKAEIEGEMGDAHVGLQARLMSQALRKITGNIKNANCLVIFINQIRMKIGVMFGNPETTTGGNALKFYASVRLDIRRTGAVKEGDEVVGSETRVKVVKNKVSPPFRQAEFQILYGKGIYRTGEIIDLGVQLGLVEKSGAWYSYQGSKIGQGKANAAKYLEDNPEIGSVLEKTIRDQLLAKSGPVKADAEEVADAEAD", "assay": "Differential scanning fluorimetry (thermal shift) on RecAPa", "type": "binding, P. aeruginosa", "conditions": "read-out: RecAPa ΔTm compared to the control", "protocol": "To elucidate whether A12 binds RecAPa or LexAPa, the two proteins were submitted to a thermal shift assay by DSF, in the presence of different concentrations of A12 (30–1000 μM; Figure A–C). Controls devoid of A12 were included, as well.\nFluorescence of the SyproOrange dye was measured by a StepOne Real-Time PCR System (Applied Biosystems), while increasing the temperature from 25 to 95 °C (0.5 °C/min). Normalized fluorescence intensity curves were compared to observe macroscopic differences in the recorded melting profiles, while derivative curves were analyzed to find exact protein melting temperatures (T m, corresponding to derivative curve minimum). Melting curves were repeated twice, and duplicates were considered coherent if T m differences were lower than 1 °C."}, "[5]": {"molecular_target": "T3, LexAPa S125A / SOS-box dsDNA (Pseudomonas aeruginosa, UniProt P37452, S125A)", "T3 construct": "Concerning full-length LexAPa ^S125A, a biphasic melting curve was obtained for the pure protein; made in house; host or cells: E. coli BL21(DE3)", "T3 sequence (P37452 2-204 S125A)": "as the sequence (P37452 2-204 S125A) above", "assay": "EMSA of LexAPa S125A binding to SOS box dsDNA", "type": "biochemical, P. aeruginosa", "conditions": "60-fold molar excess of A12", "protocol": "LexAPa DNA-binding activity–which has to be preserved for an anti-SOS strategy to be effective–resides on the NTD but requires dimerization via the CTD. In this context, to rule out any interfering effect of A12 on LexAPa binding to SOS-box DNA, an EMSA was performed by incubating LexAPa with operator dsDNA sequences and different doses of A12, before analyzing the mixtures on native polyacrylamide gels.\nAn EMSA of the SOS-box dsDNA in the presence of full-length LexAPaS125A and different concentrations of the hit compound was performed to observe the potential interference effects of the selected drug on LexAPa binding to operator DNA sequences.\nSOS-box dsDNA was produced by mixing equimolar amounts of AT-repeat_For and AT-repeat_Rev oligonucleotides (Supplementary, Table S1) in annealing buffer (10 mM Tris–HCl, 50 mM NaCl, 1 mM EDTA, pH 7.5), heating at 95 °C for 5 min, and then allowing the mixture to cool down to room temperature slowly overnight. The E. coli “AT-repeat” operator sequence was used as it is fully compatible with the P. aeruginosa SOS-box consensus (CTG-N2-T-N7-CAG).\n1 μM SOS-box dsDNA was incubated either alone or with 8 μM 6His-LexAPa ^S125A in EMSA buffer (50 mM Tris–HCl, 750 mM KCl, 0.5 mM EDTA, pH 7.4). […]"}}}
{"compound": "O=C(O)CCNc1ccccc1S", "note": "[A12, 3-(2-sulfanylanilino)propanoic acid]", "values": [{"measurement": "Kd", "setting": "[1]", "value": "7.4 ± 0.5", "unit": "µM"}, {"measurement": "solubility", "setting": "[2]", "value": "~500", "unit": "µM"}, {"measurement": "Intracellular (internalized) burden of PAO1 in THP-1-derived macrophages", "setting": "[3]; A12 100 μg/mL alone", "value": "reduced the internalized bacterial growth"}, {"measurement": "Intracellular (internalized) burden of PAO1 in THP-1-derived macrophages", "setting": "[3]; combination of ciprofloxacin 0.5 μg/mL and A12 100 μg/mL", "value": "synergized with ciprofloxacin"}, {"measurement": "Total (adherent + intracellular) burden of PAO1 on THP-1-derived macrophages", "setting": "[3]; single agent: ciprofloxacin 0.5 μg/mL or A12 100 μg/mL, 3 h infection", "value": "diminished"}, {"measurement": "ΔTm at 1000 µM", "setting": "[4]", "value": 10, "unit": "°C"}, {"measurement": "LexAPa SOS box DNA-binding activity in the presence of A12", "setting": "[5]", "value": "retained full SOS box DNA-binding activity"}]}
